The values below are quoted from earlier work in US10481149B2.

The test system of the data set is elimination transporters. The following applies: sandwich-cultured rat hepatocytes; cited from earlier work.

`COc1ccc(Cl)cc1C(=O)NCCc1ccc(S(=O)(=O)NC(=O)NC2CCCCC2)cc1` [glibenclamide]: the “interference with rosuvastatin elimination” value was 29.3%.
